Test results published in patent US10004739B2, “Methods for treating cancer by inhibiting FGFR3/TACC3 fusion protein” (Astellas Pharma Inc., priority 2012, dated 2018).
Where two headings read alike, the source gives them in different places.

How the values were obtained:
[1] = tested on: FGFR3-TACC3_v2 (N-FLAG) fusion polypeptide; assay: In vitro kinase activity of FGFR3-TACC3_v2 (N-FLAG) fusion polypeptide (HTRF KinEASE-TK, peptide substrate); type: biochemical, human; conditions: ATP 100 μM
[2] = tested on: FGFR3-TACC3_v3 expression/NIH3T3 cells; assay: Anchorage-independent cell proliferation, spheroid plate, CellTiter-Glo; conditions: Mus musculus, NIH3T3, 96 h, read-out: growth inhibition rate (%), v3
Procedure: (§4) The FGFR3-TACC3_v1 expression/NIH3T3 cells were seeded in a 96-well spheroid plate (Sumilon Cell-Tight Spheroid 96U; SUMITOMO BAKELITE CO., LTD.) with D-MEM containing 10% fetal bovine serum, such that the cell count in each well became 1×10^3. Moreover, as a positive control, a well added only with the medium was prepared. […] As a negative control, DMSO as a vehicle of the compound was added thereto at the same concentration (0.1%) as set at the time of adding the compound. Thereafter, the cells were cultured for 4 days at 37° C. in the presence of 5% CO2, and a reagent for cell count measurement (CellTiter-Glo™ Luminescent Cell Viability Assay; Promega Corporation) was added thereto. The resultant was stirred for 20 minutes, and the cell count was measured using a luminometer.
(§5) Moreover, the respective compounds were added such that the final concentration thereof became 100 nM, 10 nM, and 1 nM.

[3] = tested on: FGFR3-TACC3_v2 expression/NIH3T3 cells; assay: as above; conditions: Mus musculus, NIH3T3, 96 h, read-out: growth inhibition rate (%), v2
Procedure: as §4, §5

[4] = tested on: FGFR3-TACC3_v3 (N-FLAG) fusion polypeptide; assay: In vitro kinase activity of FGFR3-TACC3_v3 (N-FLAG) fusion polypeptide (HTRF KinEASE-TK, peptide substrate); type: biochemical, human; conditions: ATP 100 μM
[5] = tested on: RT-112 cells; assay: Anchorage-independent proliferation of RT-112 bladder cancer cell line, spheroid plate, CellTiter-Glo; type: cell-based; conditions: Homo sapiens
Procedure: Moreover, as a positive control, a well added only with the medium was prepared. […] As a negative control, DMSO as a vehicle of the compound was added thereto at the same concentration (0.1%) at the time of adding the compound. Thereafter, the cells were cultured for 5 days at 37° C. in the presence of 5% CO2, and a reagent for cell count measurement (CellTiter-Glo™ Luminescent Cell Viability Assay; Promega Corporation) was added thereto. The resultant was stirred for 20 minutes, and the cell count was measured using a luminometer.
as §5

[6] = tested on: FGFR3-TACC3_v1 (N-FLAG) fusion polypeptide; assay: In vitro kinase activity of FGFR3-TACC3_v1 (N-FLAG) fusion polypeptide (HTRF KinEASE-TK, peptide substrate); type: biochemical, human; conditions: ATP 100 μM
[7] = tested on: FGFR3-TACC3_v1 expression/NIH3T3 cells; assay: Anchorage-independent cell proliferation, spheroid plate, CellTiter-Glo; conditions: Mus musculus, NIH3T3, 96 h, read-out: growth inhibition rate (%), v1
Procedure: as §4, §5

[8] = tested on: cell line intrinsically expressing an EML4-ALK fusion gene; conditions: Clin. Cancer Res. 2008; 4275-4283; cited from earlier work
[9] = tested on: FGFR3-TACC3_v1 expression/NIH3T3 cells (tumors); assay: Anti-tumorigenic activity in nude mice bearing subcutaneous tumors; type: in vivo; conditions: 30 mg/kg orally once a day for 11 days
Description: (§1) Cg-Foxn1Nu/Crlcrlj (Nu/Nu) nude mice (Charles River Laboratories, Japan) by means of subcutaneous injection performed in the back of the mice. Three days after the inoculation, AZD4547 and BGJ398 which are FGFR3-TACC3 fusion polypeptide inhibitors were started to be administered. For the test, 4 to 5 mice were assigned to each of the vehicle group and the compound group, AZD4547 and BGJ398 were suspended in a vehicle composed of 0.5% methyl cellulose (Shin-Etsu Chemical Co., Ltd.)/99.5% distilled water, and each of the compounds was orally administered at a dosage of 30 mg/kg. The administration was performed once a day for 11 days, and the body weight of mice and a tumor diameter were measured every 2 or 3 days. A tumor volume was calculated using the following formula. [Tumor volume (mm^3)]=[major axis of tumor (mm)]×[minor axis of tumor (mm)]^2×0.5

[10] = tested on: FGFR3-TACC3_v2 expression/NIH3T3 cells (tumors); assay: as above; type: in vivo; conditions: 30 mg/kg orally once a day for 11 days
Description: as §1

[11] = tested on: FGFR3-TACC3_v3 expression/NIH3T3 cells (tumors); assay: as above; type: in vivo; conditions: 30 mg/kg orally once a day for 11 days
Description: as §1

[12] = molecular target: T1, FGFR3-TACC3_v3 (Homo sapiens, UniProt P22607); assay: Kinase inhibition in tumor: phosphorylated FGFR3/total FGFR3 by ELISA; type: in vivo, nude mice; conditions: 4 hours after the final administration; dosing as Example 13
T1 construct: in order to express a full length of ORF of FGFR3-TACC3_v3 as a protein; expressed in transfected cells; host or cells: NIH3T3 cells infected with FGFR3-TACC3_v3/pMXs-puro retrovirus, inoculated into nude mice
Procedure: (§2) For the test, 5 mice were assigned to each of the vehicle group and the compound group, and 4 hours after the final administration, tumors were extracted by dissection. Thereafter, by using a lysis solution (Cell Lysis Buffer; Cell Signaling Technology, Inc., Phosphatase Inhibitor Cocktail; Thermo Fisher Scientific Inc., Complete; Roche, Ltd.), protein extracts of the tumors were rapidly prepared, and the total FGFR3 level and a phosphorylated FGFR3 level of the tumors were measured using an ELISA kit (R&D Systems). ELISA was performed according to the attached procedure manual, but detection was performed in a different way in which the chemiluminescence detection is conducted using a chemiluminescent reagent (BM chemiluminescence ELISA substrate; Roche, Ltd.) and a luminometer (ARVO; PerkinElmer Inc.).
(§3) A level obtained by correcting the phosphorylated FGFR3 level by using the total FGFR3 level (phosphorylated FGFR3 level/total FGFR3 level) was taken as a phosphorylation level.

[13] = molecular target: T2, FGFR3-TACC3 fusion polypeptide v1 (Homo sapiens, UniProt P22607); assay: as above; type: in vivo, nude mice; conditions: 4 hours after the final administration; dosing as Example 13
T2 construct: expressed in transfected cells; host or cells: NIH3T3 cells infected with FGFR3-TACC3_v1/pMXs-puro retrovirus, inoculated into nude mice
Procedure: as §2, §3

[14] = molecular target: T3, FGFR3-TACC3_v2 (Homo sapiens, UniProt P22607, F384L); assay: as above; type: in vivo, nude mice; conditions: 4 hours after the final administration; dosing as Example 13
T3 construct: in order to express a full length of ORF of FGFR3-TACC3_v2 as a protein; expressed in transfected cells; host or cells: NIH3T3 cells infected with FGFR3-TACC3_v2/pMXs-puro retrovirus, inoculated into nude mice
Procedure: as §2, §3

[15] = tested on: cells expressing FGFR3-TACC3 fusion gene; conditions: reported in Science 2012; 337:1231-5; cited from earlier work
[16] = RT-112, final concentration 1 nM, Example 30: 1×10^3 cells per well, RPMI1640 with 2 mM L-glutamine, otherwise as Example 9, read-out: growth inhibition rate (%), RT-112
[17] = RT-112, final concentration 10 nM, Example 30: 1×10^3 cells per well, RPMI1640 with 2 mM L-glutamine, otherwise as Example 9, read-out: growth inhibition rate (%), RT-112
[18] = RT-112, final concentration 100 nM, Example 30: 1×10^3 cells per well, RPMI1640 with 2 mM L-glutamine, otherwise as Example 9, read-out: growth inhibition rate (%), RT-112
[19] = RT-112, 120 h, final concentration 100 nM, Example 16: 2×10^3 cells per well, 5 days, read-out: growth inhibition rate (%), RT-112
[20] = RT-112, read-out: growth inhibition rate (%), RT-112

SMILES | Inhibition against peptide substrate FGFR3-TACC3 v2 ([1]; final concentration 1 nM) [%] | Inhibition against peptide substrate FGFR3-TACC3 v2 ([1]; final concentration 10 nM) [%] | Inhibition against peptide substrate FGFR3-TACC3 v2 ([1]; final concentration 100 nM) [%] | inhibition at 0.001 µM [2] [%] | inhibition at 0.01 µM [2] [%] | inhibition at 0.001 µM [3] [%] | Inhibition against peptide substrate FGFR3-TACC3 v3 ([4]; final concentration 1 nM) [%] | Inhibition against peptide substrate FGFR3-TACC3 v3 ([4]; final concentration 100 nM) [%] | inhibition at 0.001 µM [5, 16] [%] | inhibition at 0.01 µM [5, 17] [%] | Inhibition against peptide substrate FGFR3-TACC3 v1 ([6]; final concentration 10 nM) [%] | Inhibition against peptide substrate FGFR3-TACC3 v1 ([6]; final concentration 100 nM) [%] | inhibition at 0.001 µM [7] [%] | inhibition at 0.01 µM [7] [%] | inhibition at 0.1 µM [2] [%] | inhibition at 0.01 µM [3] [%] | inhibition at 0.1 µM [3] [%] | Inhibition against peptide substrate FGFR3-TACC3 v3 ([4]; final concentration 10 nM) [%] | Inhibition against peptide substrate FGFR3-TACC3 v1 ([6]; final concentration 1 nM) [%] | inhibition at 0.1 µM [7] [%] | also measured
COc1cc(OC)c(F)c(COc2cnc(Nc3cnn(C[C@@H](O)CO)c3)nc2)c1F [Compound C, (2R)-3-[4-({5-[(2,6-difluoro-3,5-dimethoxybenzyl)oxy]pyrimidin-2-yl}amino)-1H-pyrazol-1-yl]propane-1,2-diol] | 22 | 73 | 95 | 3 | 24 | 0 | 41 | 96 | 21 | 72 | 79 | 95 | 5 | 44 |  |  |  |  |  |  | 
COc1cc(OC)c(F)c(COc2cnc(Nc3ccc(N4CCN(C)CC4)cc3)nc2)c1F [Compound D, 5-[(2,6-difluoro-3,5-dimethoxybenzyl)oxy]-N-[4-(4-methylpiperazin-1-yl)phenyl]pyrimidin-2-amine] | 27 | 80 | 95 | 25 | 79 | 23 | 45 | 97 | 23 | 80 | 80 | 94 | 26 | 84 | 89 | 79 | 88 | 85 | 34 | 90 | inhibition at 0.1 µM [5, 18]: 89%
COc1cc(N2CCC(N3CCN(C)CC3)CC2)ccc1Nc1ncc(Cl)c(Nc2ccccc2S(=O)(=O)C(C)C)n1 [TAE684] |  |  |  |  |  |  |  |  |  |  |  |  |  |  |  |  |  |  |  |  | growth of the cell [8]: growth of the cell is inhibited; phosphorylation of ALK [8]: phosphorylation is inhibited
CCN1CCN(c2ccc(Nc3cc(N(C)C(=O)Nc4c(Cl)c(OC)cc(OC)c4Cl)ncn3)cc2)CC1 [BGJ398] | 8 | 44 | 79 |  |  |  | 13 | 75 |  |  | 47 | 58 |  |  | 87 |  | 90 | 38 | 26 | 92 | inhibition of proliferation of tumors (tumor volume) [9]: 90%; inhibition of proliferation of tumors (tumor volume) [10]: 90%; inhibition of growth of tumors (tumor volume) [11]: 88%; reduction of tyrosine auto-phosphorylation in the tumor compared to the vehicle group [12]: 85%; reduction of tyrosine auto-phosphorylation in the tumor compared to the vehicle group [13]: 77%; reduction of tyrosine auto-phosphorylation in the tumor compared to the vehicle group [14]: 66%; proliferation of cells expressing FGFR3-TACC3 fusion gene [15]: inhibited the proliferation; inhibition at 0.1 µM [5, 19]: 90%
C[C@@H](Oc1ccc2[nH]nc(/C=C/c3cnn(CCO)c3)c2c1)c1c(Cl)cncc1Cl [LY2874455, (R)-(E)-2-{4-[2-{5-[1-(3,5-dichloropyridin-4-yl)ethoxy]-1H-indazol-3-yl}vinyl]-1H-pyrazol-1-yl}ethanol, reference compound] | 64 | 87 |  |  | 89 |  | 57 |  |  |  | 77 |  |  | 88 |  | 90 |  | 83 | 46 |  | Inhibition against peptide substrate FGFR3-TACC3 v2 ([1]; final concentration 0.1 nM): 15%; Inhibition against peptide substrate FGFR3-TACC3 v3 ([4]; final concentration 0.1 nM): 3%; Inhibition against peptide substrate FGFR3-TACC3 v1 ([6]; final concentration 0.1 nM): 12%
CN1CCN(c2ccc3nc(-c4c(N)c5c(F)cccc5[nH]c4=O)[nH]c3c2)CC1 [Dovitinib, 4-amino-5-fluoro-3-[6-(4-methylpiperazin-1-yl)-1H-benzo[d]imidazol-2-yl]quinoline-2(1H)-one, reference compound] |  |  |  |  |  |  |  |  |  |  |  |  |  |  |  |  |  |  |  |  | inhibition at 0.1 µM [5, 19]: 80%
CCN(CC)CCCCNc1ncc2cc(-c3cc(OC)cc(OC)c3)c(NC(=O)NC(C)(C)C)nc2n1 [PD173074] |  |  |  |  |  |  |  |  |  |  |  |  |  |  |  |  |  |  |  |  | proliferation of cells expressing FGFR3-TACC3 fusion gene [15]: inhibited the proliferation
COc1cc(OC)c(F)c(COc2cnc(Nc3cc(CN4CCN(C)CC4)n(C)n3)nc2)c1F [Compound E, 5-[(2,6-difluoro-3,5-dimethoxybenzyl)oxy]-N-{1-methyl-5-[(4-methylpiperazin-1-yl)methyl]-1H-pyrazol-3-yl}pyrimidin-2-amine] | 6 | 25 | 78 | 6 | 20 | 11 | 30 | 91 | 5 | 33 | 40 | 86 | 7 | 28 | 81 | 29 | 79 | 55 | 7 | 84 | inhibition at 0.1 µM [5, 18]: 81%
COc1cc(Nc2ncc(OCc3c(F)c(OC)cc(OC)c3F)cn2)ccc1N1CCC(N2CCN(C)CC2)CC1 [Compound A, 5-[(2,6-difluoro-3,5-dimethoxybenzyl)oxy]-N-{3-methoxy-4-[4-(4-methylpiperazin-1-yl)piperidin-1-yl]phenyl}pyrimidin-2-amine] |  |  |  |  |  |  |  |  |  |  |  |  |  |  |  |  |  |  |  |  | inhibition at 0.001 µM [5, 20]: 29%; inhibition at 0.01 µM [5, 20]: 83%; inhibition at 0.1 µM [5, 20]: 90%
